Results reported in PubChem BioAssay AID248 (DTP/NCI, 2004).
Values joined by “and” are separate entries in the source; they are usually repeats but may differ in a detail not shown here. Equal entries are not always repeated. Inconclusive results and toxic doses are left out. Rule as the data show it: active = T/C of 150% or more; inactive = T/C below 125%.

Test system: L1210 leukemia ip in BDF1 mice, survival T/C
Experiment: NCI In Vivo Anticancer Drug Screen. Data for tumor model L1210 Leukemia (intraperitoneal) in B6D2F1 (BDF1) mice
Conditions: endpoint: mean survival time, higher = longer survival
Procedure, shortened: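 Transplanted-tumor mice were given test agent; controls received vehicle only. Survival readings from the two groups were divided (treated over control).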

[1] = dose: 100.0 mg/kg/injection, schedule: Q04DX002 (ip), vehicle: saline with Tween-80
[2] = dose: 200.0 mg/kg/injection, schedule: Q04DX002 (ip), vehicle: saline with Tween-80
[3] = dose: 400.0 mg/kg/injection, schedule: Q04DX002 (ip), vehicle: saline with Tween-80
[4] = dose: 100.0 mg/kg/injection, schedule: Q01DX001 (ip), vehicle: saline
[5] = dose: 100.0 mg/kg/injection, schedule: Q01DX009 (ip), vehicle: saline
[6] = dose: 100.0 mg/kg/injection, schedule: Q04DX003 (ip), vehicle: saline
[7] = dose: 200.0 mg/kg/injection, schedule: Q01DX001 (ip), vehicle: saline
[8] = dose: 200.0 mg/kg/injection, schedule: Q01DX009 (ip), vehicle: saline
[9] = dose: 200.0 mg/kg/injection, schedule: Q04DX003 (ip), vehicle: saline
[10] = dose: 400.0 mg/kg/injection, schedule: Q01DX001 (ip), vehicle: saline
[11] = dose: 400.0 mg/kg/injection, schedule: Q01DX009 (ip), vehicle: saline
[12] = dose: 400.0 mg/kg/injection, schedule: Q04DX003 (ip), vehicle: saline
[13] = dose: 100.0 mg/kg/injection, schedule: Q01DX001 (ip), vehicle: carboxymethylcellulose (CMC)
[14] = dose: 200.0 mg/kg/injection, schedule: Q01DX001 (ip), vehicle: carboxymethylcellulose (CMC)
[15] = dose: 100.0 mg/kg/injection, schedule: Q01DX009 (ip), vehicle: saline with Tween-80
[16] = dose: 200.0 mg/kg/injection, schedule: Q01DX009 (ip), vehicle: saline with Tween-80

Measured: T/C

CP1(=S)CCC(=O)CC1
inactive: [1] 91 % of control | [2] 95 % of control | [3] 98 % of control

CS(=O)(=O)OCCN1C(=O)NC(c2ccccc2)(c2ccccc2)C1=O
inactive: [4] 94 % of control | [5] 97 % of control | [6] 107 % of control | [7] 94 % of control | [8] 96 % of control | [9] 93 % of control | [10] 100 % of control | [11] 97 % of control | [12] 101 % of control

CCCCCCCCCC/C=N\N=C(N)N
inactive: dose: 15.0 mg/kg/injection, schedule: Q01DX Z (ip), vehicle: other 107 % of control | dose: 15.0 mg/kg/injection, schedule: Q01DX Z (oral), vehicle: carboxymethylcellulose (CMC) 96 % of control | dose: 30.0 mg/kg/injection, schedule: Q01DX Z (ip), vehicle: other 97 % of control | dose: 30.0 mg/kg/injection, schedule: Q01DX Z (oral), vehicle: carboxymethylcellulose (CMC) 103 % of control | dose: 60.0 mg/kg/injection, schedule: Q01DX Z (oral), vehicle: carboxymethylcellulose (CMC) 96 % of control | dose: 120.0 mg/kg/injection, schedule: Q01DX Z (oral), vehicle: carboxymethylcellulose (CMC) 103 % of control

CC(OC1CCCCO1)C1CCC2C3CCC4=CC(=O)CCC4(C)C3CCC12C (stereo not given)
inactive: dose: 50.0 mg/kg/injection, schedule: Q01DX001 (sc), vehicle: steriod suspending solution 103 % of control | dose: 100.0 mg/kg/injection, schedule: Q01DX001 (sc), vehicle: steriod suspending solution 105 % of control | dose: 200.0 mg/kg/injection, schedule: Q01DX001 (sc), vehicle: steriod suspending solution 103 % of control | dose: 400.0 mg/kg/injection, schedule: Q01DX001 (sc), vehicle: steriod suspending solution 111 % of control

NNc1ccnc2c1cnn2C1OC(CO)C(O)C1O (stereo not given)
inactive: dose: 50.0 mg/kg/injection, schedule: Q01DX005 (ip), vehicle: other 105 % of control

CCN(CC)CCOC(=O)Nc1ccccc1
inactive: dose: 50.0 mg/kg/injection, schedule: Q04DX003 (ip), vehicle: saline 98 % of control | [6] 90 % of control

O=C(CCl)NC1CCC(CC2CCCCC2)CC1 (stereo not given)
inactive: dose: 100.0 mg/kg/injection, schedule: Q04DX003 (ip), vehicle: Klucel (hydroxypropylcellulose) (HPC) 99 % of control | dose: 200.0 mg/kg/injection, schedule: Q04DX003 (ip), vehicle: Klucel (hydroxypropylcellulose) (HPC) 93 % of control | dose: 400.0 mg/kg/injection, schedule: Q04DX003 (ip), vehicle: Klucel (hydroxypropylcellulose) (HPC) 89 % of control

CCNC(=S)NCCO
inactive: dose: 100.0 mg/kg/injection, schedule: Q04DX003 (ip), vehicle: saline sonified 97 % of control | dose: 200.0 mg/kg/injection, schedule: Q04DX003 (ip), vehicle: saline sonified 90 % of control | dose: 400.0 mg/kg/injection, schedule: Q04DX003 (ip), vehicle: saline sonified 97 % of control

Nc1nc(N)c(N)c(Nc2ccc(Cl)cc2)n1
inactive: dose: 100.0 mg/kg/injection, schedule: Q04DX002 (ip), vehicle: Klucel (hydroxypropylcellulose) (HPC) 101 % of control | dose: 200.0 mg/kg/injection, schedule: Q04DX002 (ip), vehicle: Klucel (hydroxypropylcellulose) (HPC) 101 % of control

O=C(Nc1ccc([N+](=O)[O-])cc1Cl)SCCSC(=O)Nc1ccc([N+](=O)[O-])cc1Cl
inactive: dose: 100.0 mg/kg/injection, schedule: Q01DX009 (ip), vehicle: Klucel (hydroxypropylcellulose) (HPC) 114 % of control | dose: 200.0 mg/kg/injection, schedule: Q01DX009 (ip), vehicle: Klucel (hydroxypropylcellulose) (HPC) 94 % of control | dose: 400.0 mg/kg/injection, schedule: Q01DX009 (ip), vehicle: Klucel (hydroxypropylcellulose) (HPC) 105 % of control

COc1nncc(-c2cnnc(OC)n2)n1
inactive: dose: 12.5 mg/kg/injection, schedule: Q04DX002 (ip), vehicle: Klucel (hydroxypropylcellulose) (HPC) 112 % of control | dose: 25.0 mg/kg/injection, schedule: Q04DX002 (ip), vehicle: Klucel (hydroxypropylcellulose) (HPC) 105 % of control | dose: 50.0 mg/kg/injection, schedule: Q04DX002 (ip), vehicle: Klucel (hydroxypropylcellulose) (HPC) 109 % of control

COC(=O)C1=CCCCC(N2CCOCC2)=C1C(=O)OC
inactive: [4] 97 % of control | [7] 101 % of control | [10] 103 % of control

CCCCCCCCCCCCCCCC(=O)Nc1ccc(Cl)c(Cl)c1
inactive: dose: 50.0 mg/kg/injection, schedule: Q04DX003 (ip), vehicle: carboxymethylcellulose (CMC) 87 % of control | [13] 89 % of control | dose: 100.0 mg/kg/injection, schedule: Q01DX009 (ip), vehicle: carboxymethylcellulose (CMC) 102 % of control and 89 % of control | dose: 100.0 mg/kg/injection, schedule: Q04DX002 (ip), vehicle: other 92 % of control and 101 % of control | dose: 100.0 mg/kg/injection, schedule: Q04DX003 (ip), vehicle: carboxymethylcellulose (CMC) 95 % of control | [14] 90 % of control | dose: 200.0 mg/kg/injection, schedule: Q01DX009 (ip), vehicle: carboxymethylcellulose (CMC) 96 % of control and 86 % of control | dose: 200.0 mg/kg/injection, schedule: Q04DX002 (ip), vehicle: other 93 % of control and 89 % of control | dose: 200.0 mg/kg/injection, schedule: Q04DX003 (ip), vehicle: carboxymethylcellulose (CMC) 87 % of control | dose: 400.0 mg/kg/injection, schedule: Q01DX009 (ip), vehicle: carboxymethylcellulose (CMC) 93 % of control and 86 % of control | dose: 400.0 mg/kg/injection, schedule: Q04DX002 (ip), vehicle: other 93 % of control and 94 % of control

C/C(=N/N=C(N)N)c1cccc(O)c1
inactive: dose: 15.0 mg/kg/injection, schedule: Q01DX Z (ip), vehicle: methylcellulose (MC) 107 % of control | dose: 30.0 mg/kg/injection, schedule: Q01DX Z (ip), vehicle: methylcellulose (MC) 110 % of control | dose: 30.0 mg/kg/injection, schedule: Q01DX Z (oral), vehicle: methylcellulose (MC) 89 % of control | dose: 60.0 mg/kg/injection, schedule: Q01DX Z (ip), vehicle: methylcellulose (MC) 97 % of control

BrC12CC3CC(C1)CC(Br)(C3)C2
inactive: dose: 50.0 mg/kg/injection, schedule: Q01DX001 (ip), vehicle: carboxymethylcellulose (CMC) 96 % of control | [13] 93 % of control | [14] 93 % of control | dose: 400.0 mg/kg/injection, schedule: Q01DX001 (ip), vehicle: carboxymethylcellulose (CMC) 102 % of control

O=C(O)C1CCC(SSC2CCC(C(=O)O)CC2[N+](=O)[O-])C([N+](=O)[O-])C1 (stereo not given)
inactive: [1] 95 % of control | [2] 103 % of control | [3] 103 % of control

COC(=O)C(N)CSC (stereo not given)
inactive: [5] 101 % of control | [6] 101 % of control | [8] 98 % of control | [9] 97 % of control | [11] 95 % of control | [12] 101 % of control

CC(C)=NNS(=O)(=O)c1ccccc1
inactive: dose: 50.0 mg/kg/injection, schedule: Q01DX009 (ip), vehicle: saline with Tween-80 106 % of control | [15] 108 % of control | [16] 101 % of control

COc1ccc(Cl)cc1NC(=O)Nc1cc(C)ccc1N=Nc1ccc(C)cc1
inactive: dose: 100.0 mg/kg/injection, schedule: Q01DX001 (ip), vehicle: saline with Tween-80 96 % of control and 91 % of control | [15] 88 % of control | [1] 87 % of control | dose: 200.0 mg/kg/injection, schedule: Q01DX001 (ip), vehicle: saline with Tween-80 96 % of control | [16] 94 % of control and 91 % of control | [2] 92 % of control | dose: 400.0 mg/kg/injection, schedule: Q01DX001 (ip), vehicle: saline with Tween-80 96 % of control and 88 % of control | dose: 400.0 mg/kg/injection, schedule: Q01DX009 (ip), vehicle: saline with Tween-80 94 % of control | [3] 92 % of control

COc1cc(NC(C)CCCN)c2ncccc2c1 (stereo not given)
inactive: dose: 25.0 mg/kg/injection, schedule: Q04DX003 (ip), vehicle: saline with Tween-80 104 % of control | dose: 50.0 mg/kg/injection, schedule: Q04DX003 (ip), vehicle: saline with Tween-80 95 % of control | dose: 100.0 mg/kg/injection, schedule: Q04DX003 (ip), vehicle: saline with Tween-80 95 % of control and 105 % of control

CCC1C(=O)CC(C(=O)O)C1C(=O)O (stereo not given)
inactive: [1] 100 % of control | [2] 96 % of control

O=C(C[n+]1cccc(CO)c1)c1ccc(-c2ccc(C(=O)C[n+]3cccc(CO)c3)cc2)cc1
inactive: dose: 0.05 mg/kg/injection, schedule: Q04DX003 (ip), vehicle: saline 105 % of control | dose: 0.1 mg/kg/injection, schedule: Q04DX003 (ip), vehicle: saline 100 % of control | dose: 0.2 mg/kg/injection, schedule: Q04DX003 (ip), vehicle: saline 108 % of control
